# Assay results taken from patent US4791118A, “Quinolonecarboxylic acid derivatives and their preparation” (Kyorin Pharmaceutical Co., Ltd., priority 1985, dated 1988).
# Like-named read-outs stand apart in the source and are kept apart here.
# How the values were obtained:
# [1] = system: Acinetobacter anitratus IID 876; assay: MIC, aerobic bacteria; type: cell-based; conditions: Acinetobacter calcoaceticus, IID876, Gram -, 10^6 cells/ml
# Text: (§1) | Organism (10^6 cells/ml)
# [2] = system: Citrobacter freundii IID 976; assay: MIC, aerobic bacteria; type: cell-based; conditions: IID976, Gram -, 10^6 cells/ml
# Text: as §1
# E. coli ATCC 10536 = assay: MIC, aerobic bacteria; type: cell-based; conditions: Escherichia coli, ATCC10536, Gram -, 10^6 cells/ml
# Text: as §1
# [3] = system: Escherichia coli NIHJ JC-2; assay: MIC, aerobic bacteria; type: cell-based; conditions: NIHJJC2, Gram -, 10^6 cells/ml
# Text: as §1
# [4] = system: Klebsiella pneumoniae KY(GN)6445; assay: MIC, aerobic bacteria; type: cell-based; conditions: Gram -, 10^6 cells/ml
# Text: as §1
# [5] = system: Morganella morganii IID 602; assay: MIC, aerobic bacteria; type: cell-based; conditions: IID602, Gram -, 10^6 cells/ml
# Text: as §1
# P. mirabilis IID 992 = assay: MIC, aerobic bacteria; type: cell-based; conditions: Proteus mirabilis, IID992, Gram -, 10^6 cells/ml
# Text: as §1
# [6] = system: Proteus vulgaris IFO 3167; assay: MIC, aerobic bacteria; type: cell-based; conditions: IFO3167, Gram -, 10^6 cells/ml
# Text: as §1
# [7] = system: S. aureus IID 670 (Terajima); assay: MIC, aerobic bacteria; type: cell-based; conditions: Staphylococcus aureus, IID670, Gram +, 10^6 cells/ml
# Text: as §1
# S. epidermidis IID 866 = assay: MIC, aerobic bacteria; type: cell-based; conditions: Staphylococcus epidermidis, IID866, Gram +, 10^6 cells/ml
# Text: as §1
# [8] = system: Serratia marcescens IID 618; assay: MIC, aerobic bacteria; type: cell-based; conditions: IID618, Gram -, 10^6 cells/ml
# Text: as §1
# B. distasonis 8503 = assay: MIC, anaerobic bacteria; type: cell-based; conditions: Parabacteroides distasonis, Gram -, 10^6 cells/ml
# Text: as §1
# B. fragilis 0558 = assay: MIC, anaerobic bacteria; type: cell-based; conditions: Bacteroides fragilis, Gram -, 10^6 cells/ml
# Text: as §1
# B. fragilis 25285 = assay: MIC, anaerobic bacteria; type: cell-based; conditions: Bacteroides fragilis, Gram -, 10^6 cells/ml
# Text: as §1
# B. vulgatus KYA 29327 = assay: MIC, anaerobic bacteria; type: cell-based; conditions: Phocaeicola vulgatus, KYA29327, Gram -, 10^6 cells/ml
# Text: as §1
# [9] = system: Bacteroides fragilis GM 7000; assay: MIC, anaerobic bacteria; type: cell-based; conditions: GM7000, Gram -, 10^6 cells/ml
# Text: as §1
# [10] = system: Fusobacterium mortiferum 4249; assay: MIC, anaerobic bacteria; type: cell-based; conditions: Gram -, 10^6 cells/ml
# Text: as §1
# Pst. micros UPI 5464-1 = assay: MIC, anaerobic bacteria; type: cell-based; conditions: Parvimonas micra, UPI54641, Gram +, 10^6 cells/ml
# Text: as §1
# [11] = system: Veillonella parvula KYA 10790; assay: MIC, anaerobic bacteria; type: cell-based; conditions: KYA10790, Gram -, 10^6 cells/ml
# Text: as §1
# [12] = system: Pseudomonas aeruginosa V-1; assay: MIC, aerobic bacteria; conditions: V1
# [13] = system: Alcaligenes faecalis 0114002; assay: MIC, aerobic bacteria
# [14] = system: Eubacterium limosum KYA 8486; assay: MIC, anaerobic bacteria; conditions: KYA8486
# C. ramosum = assay: MIC, anaerobic bacteria; conditions: Thomasclavelia ramosa
# [15] = system: Bacillus subtilis PCI 219; assay: microbe, parasite or virus in culture; conditions: PCI219
# [16] = system: Staphylococcus aureus 209 P; assay: microbe, parasite or virus in culture
# S. aureus Smith = assay: microbe, parasite or virus in culture; conditions: Staphylococcus aureus
# K. pneumoniae 1-220S = assay: microbe, parasite or virus in culture; conditions: Klebsiella pneumoniae, 1220S
# [17] = system: Salmonella enteritidis IID 604; assay: microbe, parasite or virus in culture; conditions: Salmonella enterica
# [18] = system: Yersinia enterocolitica IID 981; assay: microbe, parasite or virus in culture; conditions: IID981
# gram-positive bacteria = conditions: cited from earlier work
# gram-negative bacteria = conditions: than that of the prior compounds (e.g. norfloxacin, ciprofloxacin); cited from earlier work
structure (smiles),measurement,setting,value
"O=C(O)c1cn(C2CC2)c2cc(N3CCNCC3)c(F)cc2c1=O [CPFX, ciprofloxacin, reference compound]",MIC,[1],0.2 µg/mL
same,MIC,[2],0.025 µg/mL
same,MIC,E. coli ATCC 10536,0.025 µg/mL
same,MIC,[3],≤ 6.3 ng/mL
same,MIC,[4],0.025 µg/mL
same,MIC,[5],0.05 µg/mL
same,MIC,P. mirabilis IID 992,0.025 µg/mL
same,MIC,[6],0.025 µg/mL
same,MIC,[7],0.1 µg/mL
same,MIC,S. epidermidis IID 866,0.1 µg/mL
same,MIC,[8],0.05 µg/mL
same,MIC,B. distasonis 8503,6.25 µg/mL
same,MIC,B. fragilis 0558,3.13 µg/mL
same,MIC,B. fragilis 25285,6.25 µg/mL
same,MIC,B. vulgatus KYA 29327,25 µg/mL
same,MIC,[9],6.25 µg/mL
same,MIC,[10],3.13 µg/mL
same,MIC,Pst. micros UPI 5464-1,0.2 µg/mL
same,MIC,[11],0.2 µg/mL
same,MIC,[12],0.05 µg/mL
same,MIC,[13],0.2 µg/mL
same,MIC,[14],3.13 µg/mL
same,MIC,C. ramosum,6.25 µg/mL
same,MIC,[15],0.05 µg/mL
same,MIC,[16],0.2 µg/mL
same,MIC,S. aureus Smith,0.2 µg/mL
same,MIC,K. pneumoniae 1-220S,0.05 µg/mL
same,MIC,[17],0.025 µg/mL
same,MIC,[18],0.05 µg/mL
CCn1cc(C(=O)O)c(=O)c2cc(F)c(N3CCNCC3)cc21 [norfloxacin],activity against gram-positive bacteria,gram-positive bacteria; compared with gram-negative bacteria,fairly less than that against gram-negative bacteria
CCNCC1CCN(c2c(F)cc3c(=O)c(C(=O)O)cn(CC)c3c2F)C1 (centres unmarked) [CI-934],activity against gram-positive bacteria,"gram-positive bacteria; prior drugs, e.g. CI-934",relatively strong activity
same,activity against gram-negative bacteria,gram-negative bacteria,weaker activity
